{"source": "patent US20230158071A1", "about": "“TUMOR COMBINED IMMUNOTHERAPY” (CRAGE medical Co., Limited, priority 2018, published 2023)", "system": "E0771-EGFRvIII orthotopic breast cancer xenografts", "test": "Mouse E0771-EGFRvIII orthotopic breast cancer xenografts, olaparib and CAR-T", "format": "in vivo, C57BL/6 mice", "details": "olaparib 50 mg/kg i.p. with CAR-T cells", "protocol": "(1) Establishment of mouse orthotopic breast cancer model and respective treatment in groups:\nE0771-EGFRvIII cells in the logarithmic growth phase and growing well are collected, inoculating 5×10^5 target cells at right side position of the third pair of accessory breasts of C57BL/6 mice (mice with normal immune system), and the inoculating day is recorded as the first day (i.e., Day 1).\nOn the 10th day after tumor inoculation (i.e. Day 10), mouse T cells are taken and 806-mCD28z-CAR-T cell line is constructed as described in step 1 of this example.\nOn the 14th day after tumor inoculation (i.e., Day 14), the volume of the tumor reaches about 150 mm^3, and the mice are divided in groups:\nThe formula of olaparib stock solution: olaparib is added with 4% DMSO+30% PEG300+66% ddH2O in sequence; a solution of 5 mg/mL is used as the stock solution. […]\n(2) Detection of tumor volume. The tumor volume changes of mice are observed and measured continuously, and recorded three times a week. […]\n(4) Detection of CAR-T copy number in tumor tissues. Tumor tissues of each group of mice are ground to extract DNA, and the sequence of retroviral vector fragment is detected by Taqman probe method to determine the DNA copy number of 806-mCD28z-CAR. […]"}
{"smiles": "O=C(c1cc(Cc2n[nH]c(=O)c3ccccc23)ccc1F)N1CCN(C(=O)C2CC2)CC1", "note": "[olaparib]", "values": [{"measurement": "toxicity of combining olaparib with CAR-T cell therapy (from body weights)", "result": "do not cause significant toxicity"}]}
